Holding throughout (assay type): functional, cell-based
The test system of one assay is A549. Kind of assay: Cytotoxicity against human A549 cells.
The next assay deals with SK-OV-3. Kind of assay: Cytotoxicity against human SKOV3 cells.
The next assay concerns SK-MEL-2. Put plainly: Cytotoxicity against human SK-MEL-2 cells.
For the next assay, the system named is HCT-15. Kind of assay: Cytotoxicity against human HCT15 cells.
Another assay deals with XF498. Kind of assay: Cytotoxicity against human XF498 cells.

≈ marks a conversion by molar mass, not a printed value. Some results are limits rather than exact numbers.

What is called EC50 is the concentration that produces a half-maximal response. Consider `O=C1NCCSSCCNC(=O)/C(=N/O)Cc2ccc(c(Br)c2)Oc2cc(cc(Br)c2O)C/C(=N\O)C(=O)NCCSSCCNC(=O)/C(=N/O)Cc2cc(Br)c(O)c(c2)Oc2ccc(cc2Br)C/C1=N\O` [CYCLOBISPSAMMAPLIN A], for which the EC50 with A549 amounted to 1.95 µg/mL (≈ 1.47 µM); in the assay on SK-OV-3, 1.21 µg/mL (≈ 0.913 µM); with SK-MEL-2, 1.14 µg/mL (≈ 0.861 µM); with HCT-15 it was 3.82 µg/mL (≈ 2.88 µM); in the assay with XF498 it was 2.88 µg/mL (≈ 2.17 µM).

Take `COc1cccc2c1C(=O)c1c(O)c3c(c(O)c1C2=O)C[C@@](O)(C(=O)CO)C[C@@H]3O[C@H]1C[C@H](N)[C@H](O)[C@H](C)O1` [DOXORUBICIN]: the half-maximal effective concentration (EC50) worked out at 0.01 µg/mL (≈ 0.0184 µM) in the assay with A549; 0.01 µg/mL (≈ 0.0184 µM) with SK-OV-3; 0.01 µg/mL (≈ 0.0184 µM) in the assay on SK-MEL-2; 0.03 µg/mL (≈ 0.0552 µM) with HCT-15; 0.03 µg/mL (≈ 0.0552 µM) in the assay with XF498.

Consider `CN(C)C(=N)N.CN(C)C(=N)N.O=C(NCCSSCCNC(=O)/C(Cc1ccc(OS(=O)(=O)O)c(Br)c1)=N/O)/C(Cc1ccc(OS(=O)(=O)O)c(Br)c1)=N/O` [PSAMMAPLIN A SULFATE DIGUANIDIUM SALT], for which the EC50 in the assay with A549 was 12.3 µg/mL; in the assay on SK-OV-3, 1.79 µg/mL; in the assay with SK-MEL-2 it was 4.48 µg/mL; in the assay on HCT-15, 43.2 µg/mL; in the assay on XF498 it was 16.9 µg/mL.

With `O=C(NCCSSCCNC(=O)/C(Cc1ccc(O)c(Br)c1)=N/O)/C(Cc1ccc(OS(=O)(=O)[O-])c(Br)c1)=N\O.[Na+]` [PSAMMAPLIN A SULFATE SODIUM SALT], the EC50 with A549 came to 0.18 µg/mL; in the assay with SK-OV-3 it was 0.16 µg/mL; with SK-MEL-2, 1.13 µg/mL; in the assay with HCT-15, 1.25 µg/mL; in the assay with XF498 it was 0.18 µg/mL.

As to `N#CSCCNC(=O)/C(Cc1ccc(O)c(Br)c1)=N/O` [PSAMMAPLIN B], the EC50 is 12.8 µg/mL (≈ 35.8 µM) with A549; 9.27 µg/mL (≈ 25.9 µM) in the assay on SK-OV-3; 19.4 µg/mL (≈ 54.2 µM) in the assay with SK-MEL-2; > 30 µg/mL in the assay with HCT-15; 10.9 µg/mL (≈ 30.5 µM) in the assay on XF498.

In the case of `NC(=O)C(=O)NCCSSCCNC(=O)/C(Cc1ccc(O)c(Br)c1)=N/O` [PSAMMAPLIN E], the concentration for a half-maximal effect (EC50) is 1.47 µg/mL (≈ 3.07 µM) in the assay with A549; 0.19 µg/mL (≈ 0.396 µM) in the assay on SK-OV-3; 0.21 µg/mL (≈ 0.438 µM) in the assay with SK-MEL-2; 1.92 µg/mL (≈ 4.01 µM) with HCT-15; 1.63 µg/mL (≈ 3.4 µM) in the assay with XF498.

Turning to `CS(=O)(=O)CCNC(=O)/C(Cc1ccc(O)c(Br)c1)=N/O` [PSAMMAPLIN I], the EC50 in the assay on A549 stood at 4.15 µg/mL (≈ 10.9 µM); in the assay on SK-OV-3 it was 1.76 µg/mL (≈ 4.64 µM); in the assay on SK-MEL-2, 2.84 µg/mL (≈ 7.49 µM); with HCT-15, 6.51 µg/mL (≈ 17.2 µM); in the assay with XF498, 2.96 µg/mL (≈ 7.81 µM).

Take `COC(=O)CCNC(=O)/C(Cc1ccc(O)c(Br)c1)=N/O` [PSAMMAPLIN M]: the EC50 with A549, in the assay on SK-OV-3, in the assay with SK-MEL-2, with HCT-15 and in the assay with XF498 was > 30 µg/mL each time.

These data come from ChEMBL document CHEMBL1141012, “Cytotoxic bromotyrosine derivatives from a two-sponge association of Jaspis sp. and Poecillastra sp” (Bioorg Med Chem Lett, 2008).
